From US20110182877A1, “SUSTAINED DELIVERY OF COMPSTATIN ANALOGS FROM GELS” (POTENTIA PHARMACEUTICALS, INC., priority 2007, published 2011)
Several values for one entry are separate records, joined by “and”; a condition that tells them apart may be missing. Equal entries are not always repeated. Values belong to the compound of their own block, whether it stands above or below them. Bridge positions count the residues as written; N and C are the ends. Square brackets hold non-standard residues; d marks the D form. Trp(5-F) = N[C@@H](Cc1c[nH]c2ccc(F)cc12)C(=O)O

What was measured:
[1] = Further studies of deposits, serum and vitreous concentration after intravitreal injection (Example 3); assay type: in vivo, Cynomolgus monkeys
Method: In one study, Cynomolgus monkeys were administered 0, 150, 450, 1050, or 2100 μg of compound in 50 μl WFI by intravitreal injection.
Some of the animals that had been administered 0, 450, 1050, or 2100 μg were sacrificed, and compound concentration in serum and vitreous was measured 14 days following administration. Compound measurement was performed using HPLC. […] When administered at concentrations too low to form a deposit, the compound is cleared from the Cynomolgus vitreous with a T1/2 of about 22 hours. Therefore, it is evident that the compound measured in this experiment after 2 weeks must reflect release from the deposit rather than residual compound that was never present in the deposit.
The study was continued to evaluate behavior of the deposits over time. […] There was evidence that they were diminishing in size and/or density at the 6 month time point. […] The deposits could be observed both by ophthalmoscopic examination and ultrasound. They appeared to continue diminishing in size and/or split into multiple smaller deposits over time.
The deposits were undetectable using these techniques by approximately 1 week following dosing.

[2] = Histopathological analysis of eyes after intravitreal injection; assay type: in vivo, New Zealand White rabbits
Method: Histopathological Analysis: After examination, animals were euthanized and eyes were enucleated, fixed in Davidson's solution, sectioned and H/E stained. Sections from both eyes of animals receiving 25, 50, or 100 μg/eye of compound (Table 2, last three animals) were examined by an American Board of Pathology-certified pathologist, and peer-reviewed by a board-certified and recognized expert veterinary pathologist.
Five animals in this study were also processed for histopathological evaluation. The eyes were evaluated by two pathologists. […] The cornea, iris, ciliary body, lens, sclera, retina, and vitreous were all normal.

[3] = Indirect ophthalmoscope exam in dose-ranging study for vitreous deposits formation; assay type: in vivo, New Zealand White rabbits; set-up: key to Indirect Exam Vit.: 0: Clear, no deposits, bubbles, or haziness detectable; 1: Light haziness, no opaque deposits or vitreous opacity; 2: Moderate opacity or opaque bubble or deposit; 3: Pronounced vitreal opacity; 4: Opaque; key to Indirect Exam Retina: 0: Flat, no mars, blisters or blemishes; 1: Not flat; has wrinkles, bumps, or ripples; 2: Minor inflammation or bleeding; 3: Retinal detachment, moderate hemorrhage; 4: Destruction of retinal tissue (GA, CNV, retinal tear); details: NZW rabbit; for Indirect Exam Retina / Indirect Exam Vit.: 27 hours after treatment
Method: The study examined the ability of compound in amounts ranging from 0 to 200 μg/eye (0, 25, 50, 75, 100, 125, 150,175, 200 μg) to form deposits in the eye following intravitreal injection (Table 2). Each concentration was injected into three eyes. Thirteen animals were used for dose-ranging. Five additional animals were used for histological analysis.
Injection Procedures: Intravitreal injections were administered using a 0.5 cc tuberculin syringe (with permanently attached 29 G ½ inch needle); 0.2 ml of compound solution was withdrawn from the vial. Excess liquid was expelled, so that the syringe contained only the necessary volume of liquid for a single injection (50 μl). The eye was kept open using an eye lid speculum. The needle was inserted in the supero-temporal quadrant, through an area 3.5-4.0 mm posterior to the limbus, avoiding the horizontal meridian and aiming toward the center of the eye. Only half (¼ inch) of the needle total length (½ inch) was inserted into the eye. The injection volume was delivered slowly to prevent a rapid increase in intraocular pressure. To ensure that all the solution is in the eye and to avoid push-back through the injection site, the needle was removed slowly.
Ophthalmic Examinations: All animals received an ophthalmic exam (indirect ophthalmoscope) by a practicing clinical ophthalmologist prior to sacrifice.

[4] = Ocular safety examinations after intravitreal injection (Example 1); assay type: in vivo; details: Cynomolgus monkey
Method: During studies involving intravitreal administration of the compstatin analog whose synthesis was described above (SEQ ID NO: 32) in water for injection to non-human primates it was observed that the compound has the ability to form gel-like, approximately spheroidal intravitreal deposits in the primate (Cynomolgus monkey) eye following intravitreal injection. […] The high dose consisted of the intravitreal (IVT) injection of an estimated dose of 150 μg of compound in a volume of 50 μL water for injection while the low dose consisted of an estimated dose of 3 μg of compound in a volume of 50 μL water for injection.
(§1) At necropsy, in the majority of male animals (10 of 12) that had been dosed with compound IVT at 150 μg/eye, gel-like spheroidal intravitreal deposits were observed upon dissection of the eye. These deposits were isolated and analyzed for the presence of the compound.

[5] = Intravitreal administration to non-human primates: deposit formation and compound content (Example 1); assay type: in vivo; details: Cynomolgus monkey, IVT 150 μg/eye, from 4 hours to 2 weeks post administration
Method: Two different formulations were manufactured by dissolving the compound into water for injection at different concentrations: (i) 0.299 mg/mL, designated LD and (ii) 4.51 mg/mL, designated as HD and filter sterilizing through a Millipore Durapore 47 mm 0.22 μm filter. The liquid compositions were dispensed into individual vials (250 μl each). The pH of the LD composition was 5.48 while that of the HD composition was 6.0.
During studies involving intravitreal administration of the compstatin analog whose synthesis was described above (SEQ ID NO: 32) in water for injection to non-human primates it was observed that the compound has the ability to form gel-like, approximately spheroidal intravitreal deposits in the primate (Cynomolgus monkey) eye following intravitreal injection. […]
as §1
The deposits were analyzed for drug content, and drug content was observed and measured using HPLC.

[6] = system: complement activation; details: relative to compstatin amidated at the C-terminus; based on published data; cited from earlier work

Serum concentration relative to vitreal concentration at the same dose ([1]; Cynomolgus monkeys, 14 days following IVT 450, 1050 or 2100 μg): approximately 100 fold lower | Duration of release from intravitreal deposits ([1]; Cynomolgus monkeys, IVT 450, 1050 or 2100 μg, serum and vitreous HPLC at 14 days): at least two weeks | half-life ([1]; cynomolgus monkey, other: intravitreal injection, Cynomolgus vitreous, concentrations too low to form a deposit, read-out: T1/2 of clearance from the vitreous (converted)): ~1320 min | Histopathological evaluation of eyes ([2]; NZW rabbit, single-dose IVT 25, 50 and 100 μg/eye, two pathologists): all the evaluated eyes were normal | Indirect Exam Retina ([3]; 25 μg/eye IVT in 50 μl): 0 | Indirect Exam Vit. ([3]; 25 μg/eye IVT in 50 μl): 1 | Indirect Exam Retina ([3]; 50 μg/eye IVT in 50 μl): 0 | Indirect Exam Vit. ([3]; 50 μg/eye IVT in 50 μl): 2 and 1 | Indirect Exam Retina ([3]; 75 μg/eye IVT in 50 μl): 0 | Indirect Exam Vit. ([3]; 75 μg/eye IVT in 50 μl): 1 and 2 | Indirect Exam Retina ([3]; 100 μg/eye IVT in 50 μl): 0 | Indirect Exam Vit. ([3]; 100 μg/eye IVT in 50 μl): 2 and 3 | Indirect Exam Retina ([3]; 125 μg/eye IVT in 50 μl): 0 | Indirect Exam Vit. ([3]; 125 μg/eye IVT in 50 μl): 1 | Indirect Exam Retina ([3]; 150 μg/eye IVT in 50 μl): 0 | Indirect Exam Vit. ([3]; 150 μg/eye IVT in 50 μl): 2 and 1 | Indirect Exam Retina ([3]; 175 μg/eye IVT in 50 μl): 2 and 0 | Indirect Exam Vit. ([3]; 175 μg/eye IVT in 50 μl): 2 and 1 and 4 | Indirect Exam Retina ([3]; 200 μg/eye IVT in 50 μl): 0 | Indirect Exam Vit. ([3]; 200 μg/eye IVT in 50 μl): 1 | Pathological changes on indirect ophthalmoscopic exam ([3]; IVT 25-200 μg/eye): did not reveal any pathological changes | Eyes with vitreous haze ([3]; IVT, did not correlate strongly with dose): 9 of the 32
Compound: CC[C@H](C)[C@H](NC(C)=O)C(=O)N[C@H]1CSSC[C@@H](C(=O)N[C@H](C(N)=O)[C@@H](C)O)NC(=O)[C@H](CCCNC(=N)N)NC(=O)[C@H](Cc2cnc[nH]2)NC(=O)[C@H](C)NC(=O)CNC(=O)[C@H](Cc2c[nH]c3ccccc23)NC(=O)[C@H](CC(=O)O)NC(=O)[C@H](CCC(N)=O)NC(=O)[C@H](Cc2cn(C)c3ccccc23)NC(=O)[C@H](C(C)C)NC1=O [Ac-V4(1-MeW)/H9A, Ac-ICV(1-methyl-W)QDWGAHRCT-CONH2]
Continued release based on serum samples ([1]; Cynomolgus monkey, IVT 450, 1050, 2100 μg, up to 1 year): continued release of compstatin analog occurred during this time | Adverse effects attributable to the deposits ([1]; monkey studies, histopathology and physical examination): No adverse effects attributable to the deposits were observed | Adverse effects attributable to the deposits ([2]; rabbit studies, histopathology and physical examination): No adverse effects attributable to the deposits were observed | Adverse reactions caused by compound within the vitreous cavity ([4]; IVT 3 or 150 μg/eye): no evidence that the compound within the vitreous cavity caused any apparent adverse reactions | ERG values ([4]; IVT 3 or 150 μg/eye): within normal limits | Tonometry, intraocular pressure ([4]; IVT 3 or 150 μg/eye): no drug-related changes in intraocular pressure | Vitreal haze, binocular indirect ophthalmoscopy ([4]; day 2, IVT 3 μg/eye): diffuse vitreal haze in the right eye of one animal | Vitreal haze, binocular indirect ophthalmoscopy ([4]; day 2, IVT 150 μg/eye): four animals | Slit lamp examinations of the anterior segment of the eye ([4]; days 2 and 15 following IVT administration): no abnormalities | Histopathology of the eyes ([4]; with or without intravitreal deposits): no drug-related abnormalities were observed | Compound in the vitreous [5]: presence of the compound at all time points examined

Compound: Ac-ICV(5fW)QD(5fW)GAHRCT-CONH2 (Ac-ICV[Trp(5-F)]QD[Trp(5-F)]GAHRCT-NH2; disulfide 2-12) [Ac-V4(5fW)/W7(5fW)/H9A]
Activity over compstatin [6]: 161× more
